Results as given in patent US4263325A, “β-Receptor blocking compounds and treatment of cardiovascular disorders therewith” (priority 1979, dated 1981).

Key:
[1] = biological target: T1, cardiac β-receptors (Felis catus, UniProt Q9TST6); test: β-blockade of isoprenaline heart rate response, reserpinized anaesthetized cat; assay type: in vivo; conditions: iv, i.v. test compound, isoproterenol 0.1 μg/kg i.v., dose reducing response to 50 percent
T1 construct: All compounds were thereby tested in anaeshtetized cats; from tissue; host or cells: heart of the living, reserpinized, anaesthetized cat
Procedure: (§1) The agents of the present invention were tested as regards their biological properties. All compounds were thereby tested in anaeshtetized cats (males and females weighing 2.5-3.5 kg) pretreated with reserpine (5 mg/kg body-weight administered intramusculary) about 16 hours before the experiments. The animals were pretreated with reserpine in order to eliminate the endogenous sympathetic control of heart rate and vascular smooth muscle tone. The cats were anaesthetized with pentobarbital (30 mg/kg bodyweight administered i.p. ) and artificially ventilated with room air. A bilateral vagotomy was performed in the neck. Blood pressure was obtained from a cannulated carotid artery and heart rate was registered from a cardiotachometer, triggered by the electrocardiogram (ECG). Vascular resistance in one hind leg was recorded by an autoperfusion technique. Intrinsic beta mimetic activity on the heart was seen as increased heart rate after drug administration. The test compounds were given intravenously in logarithmically increasing doses. Before the first dose and between each of the following doses (0.012-51.2 μmol/kg) of the test compound a dose of isoproterenol (0.1 μg/kg) was injected intravenously. Blockade of the heart rate and vascular resistance response to isoproterenol was calculated for each dose and expressed as percent decrease of the response obtained when isoproterenol was injected before any dose of the test compound. Percent blockade was then plotted against the logarithm of the dose. ED50 values i.e. doses producing a reduction of the original response to isoproterenol to 50 percent were estimated from these dose-response curves. At the end of each experiment high doses of isoprenaline were given in order to obtain the maximal heart rate response.

[2] = biological target: T2, vascular β-receptors (Felis catus, UniProt Q9TST5); test: β-blockade of isoprenaline peripheral (vascular) resistance response, reserpinized anaesthetized cat, autoperfused hind leg; assay type: in vivo; conditions: iv, i.v. test compound, isoproterenol 0.1 μg/kg i.v., dose reducing response to 50 percent
T2 construct: All compounds were thereby tested in anaeshtetized cats; from tissue; host or cells: hind-leg vasculature of the living, reserpinized, anaesthetized cat (autoperfused)
Procedure: as §1

[3] = biological target: T3, α-receptors (Rattus norvegicus, UniProt P43140); test: α-receptor blocking activity in isolated rat vas deferens (inhibition of noradrenaline contraction); conditions: noradrenaline as agonist, high pA2 = high α-receptor blocking activity
T3 construct: from tissue; host or cells: isolated rat vas deferens
T3 sequence (P43140 1-466): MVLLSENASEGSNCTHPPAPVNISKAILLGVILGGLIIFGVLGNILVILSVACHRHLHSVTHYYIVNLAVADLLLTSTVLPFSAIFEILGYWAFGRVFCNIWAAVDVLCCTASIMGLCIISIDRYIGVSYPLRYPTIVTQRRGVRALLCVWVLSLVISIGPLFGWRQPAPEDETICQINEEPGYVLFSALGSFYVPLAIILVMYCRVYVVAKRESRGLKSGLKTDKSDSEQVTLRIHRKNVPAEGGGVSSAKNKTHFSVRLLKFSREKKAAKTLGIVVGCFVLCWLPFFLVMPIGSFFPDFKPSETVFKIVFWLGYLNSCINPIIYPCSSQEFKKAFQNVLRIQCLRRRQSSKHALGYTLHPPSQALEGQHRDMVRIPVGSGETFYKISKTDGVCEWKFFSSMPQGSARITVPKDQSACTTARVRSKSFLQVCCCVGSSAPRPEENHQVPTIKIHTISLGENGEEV
Procedure: α-receptor blocking activity was tested in isolated rat vas deferens. Noradrenaline administered to the organ bath induces a contraction in vas deferens by activating α-receptors. The ability of the test compounds to inhibit this noradrenaline response was studied. The α-receptor blocking activity was expressed as pA2 values. pA2 is defined as the negative logarithm of the concentration of an antagonist (in our case the test compounds) which leads to the fact that the dose of the agonist (in our case noradrenaline) has to be doubled in order to obtain the same effect of the agonist as that obtained without the antagonist present. Thus a high pA2 value indicates a high α-receptor blocking activity of a compound.

[4] = biological target: T1, cardiac β-receptors; test: Intrinsic beta mimetic activity on the heart (increase of heart rate), reserpinized anaesthetized cat; assay type: in vivo; conditions: i.v.; for Intrinsic activity Δbeats/min: increase of heart rate after drug; for Intrinsic activity % of isoprenaline: maximal heart rate response obtained with high doses of isoprenaline
Procedure: as §1

T1 sequence (Q9TST6 whole entry): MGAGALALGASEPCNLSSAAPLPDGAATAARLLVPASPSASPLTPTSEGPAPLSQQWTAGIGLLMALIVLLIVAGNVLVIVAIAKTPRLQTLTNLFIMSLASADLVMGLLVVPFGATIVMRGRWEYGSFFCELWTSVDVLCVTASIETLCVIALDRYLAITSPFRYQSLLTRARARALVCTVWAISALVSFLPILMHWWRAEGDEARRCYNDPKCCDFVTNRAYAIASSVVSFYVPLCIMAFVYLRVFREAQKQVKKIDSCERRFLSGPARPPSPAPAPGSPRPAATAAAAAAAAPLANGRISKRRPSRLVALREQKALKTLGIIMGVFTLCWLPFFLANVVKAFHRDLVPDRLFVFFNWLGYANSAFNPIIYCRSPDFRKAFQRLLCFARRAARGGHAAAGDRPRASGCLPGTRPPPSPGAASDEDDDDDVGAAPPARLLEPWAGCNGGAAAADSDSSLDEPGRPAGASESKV
T2 sequence (Q9TST5 whole entry, the tested form may be a part): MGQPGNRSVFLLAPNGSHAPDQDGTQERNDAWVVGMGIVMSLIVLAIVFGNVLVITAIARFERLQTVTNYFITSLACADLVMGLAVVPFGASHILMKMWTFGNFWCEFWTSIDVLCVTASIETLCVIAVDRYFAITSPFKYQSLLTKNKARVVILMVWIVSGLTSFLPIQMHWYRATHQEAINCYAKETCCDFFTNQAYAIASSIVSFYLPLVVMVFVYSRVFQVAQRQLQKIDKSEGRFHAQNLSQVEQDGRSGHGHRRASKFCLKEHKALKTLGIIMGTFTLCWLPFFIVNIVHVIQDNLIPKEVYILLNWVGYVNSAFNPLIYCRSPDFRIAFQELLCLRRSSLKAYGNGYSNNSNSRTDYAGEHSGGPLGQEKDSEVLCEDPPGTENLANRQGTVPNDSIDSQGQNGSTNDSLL

| SMILES | ED50 [1] [µmol/kg] | ED50 [2] [µmol/kg] | Kb [3] [µM] | Intrinsic activity Δbeats/min [4] [beats/min] | Intrinsic activity % of isoprenaline [4] |
| --- | --- | --- | --- | --- | --- |
| CCCc1ccccc1OCC(O)CNCCOc1ccc(O)cc1 (centres unmarked) [C3H7; pOH, 3-[2-(4-hydroxyphenoxy)-ethylamino]-1-o-propylphenoxy-propanol-2] | 0.02 | 0.02 | 0.126 | 0 | 0 % of isoprenaline |
| COc1ccccc1OCCNCC(O)COc1ccccc1C (centres unmarked) [CH3; 2-OCH3, 3-[2-(2methoxyphenoxy)-ethylamino]-1-o-methylphenoxy-propanol-2] | 4.5 | 11 | 0.1 | 8 | 8 % of isoprenaline |
| Cc1ccccc1OCC(O)CNCCOc1ccccc1O (centres unmarked) [CH3; 2-OH, 3-[2-(2-hydroxyphenoxy)-ethylamino]-1-o-methylphenoxy-propanol-2] | 0.6 | 17 | 1 | 30 | 29 % of isoprenaline |
| COc1ccc(OCCNCC(O)COc2ccccc2C)cc1OC (centres unmarked) [CH3; 3,4-diOCH3, 3-[2-(3,4-dimethoxyphenoxy)-ethylamino]-1-o-methylphenoxy-propanol-2] | 1.5 | 5.8 | 1 | 8 | 11 % of isoprenaline |
| COc1ccc(OCCNCC(O)COc2ccccc2C)cc1 (centres unmarked) [CH3; 4-OCH3, 3-[2-(4-methoxyphenoxy)-ethylamino]-1-o-methylphenoxy-propanol-2] | 0.5 | 8.2 | 1.58 | 17 | 22 % of isoprenaline |
| OCc1ccccc1OCC(O)CNCCOc1ccc(O)cc1 (centres unmarked) [HOCH2; pOH, 3-[2-(4-hydroxyphenoxy)-ethylamino]-1-o-hydroxymethylphenoxy-propanol-2] | 0.02 | 0.05 | 0.501 | 17 |  |
